Among the data in ChEMBL document CHEMBL1133756, “A potent aldose reductase inhibitor, (2S,4S)-6-fluoro-2', 5'-dioxospiro[chroman-4,4'-imidazolidine]-2-carboxamide (Fidarestat): its absolute configuration and interactions with the aldose reductase by X-ray crystallography” (J Med Chem, 2000) are IC50 values, retold here.

Structures are written as SMILES.

In assay [1] the target is Aldo-keto reductase family 1 member B1 (Rattus norvegicus, UniProt P07943). Nature of the assay: Tested for in vitro inhibition activity against rat Aldose reductase (AR).
Assay [2] concerns the target Aldo-keto reductase family 1 member B1 (Homo sapiens, UniProt P15121). As to the kind of experiment: Tested for in vitro inhibition activity against human Aldose reductase (human AR).
Assay [3] concerns the target T1, Aldo-keto reductase family 1 member A1 (Homo sapiens, UniProt P14550).
T1 sequence (P14550 whole entry): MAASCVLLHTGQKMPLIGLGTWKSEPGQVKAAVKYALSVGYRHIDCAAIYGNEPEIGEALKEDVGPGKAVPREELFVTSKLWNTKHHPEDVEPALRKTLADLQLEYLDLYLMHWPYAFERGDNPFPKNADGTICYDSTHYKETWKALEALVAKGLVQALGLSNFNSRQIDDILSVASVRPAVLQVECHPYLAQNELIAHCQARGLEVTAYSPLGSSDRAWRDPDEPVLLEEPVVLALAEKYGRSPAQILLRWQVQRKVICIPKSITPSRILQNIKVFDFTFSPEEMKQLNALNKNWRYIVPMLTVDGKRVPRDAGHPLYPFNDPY
Nature of the assay: Tested for in vitro inhibition activity against human aldehyde reductase (AHR).

As a reminder, the IC50 is the concentration that gives 50% inhibition. The low end stands for higher potency, the high end for lower potency. With `NC(=O)[C@H]1C[C@]2(NC(=O)NC2=O)c2cc(F)ccc2O1`, the midpoint of inhibition in assay [1], the IC50, lay at 0.57 µM.
`NC(=O)[C@@H]1C[C@]2(NC(=O)NC2=O)c2cc(F)ccc2O1`: the values for the IC50 in assay [1], in assay [2] and in assay [3] were 0.035 µM, 0.009 µM and 1.2 µM, respectively.
